Measurements from patent publication US20250074919A1, “Heteroaryl compounds as inhibitors of irak4, compositions and applications thereof” (Accro Bioscience (HK) Limited, priority 2021, published 2025).
Where a name gives a salt, the structure may show the parent alone. Read-outs that look alike come from different tables or passages of the source.

Target: IRAK4 (Homo sapiens (Human), UniProt Q9NWZ3)
Test: Screening the compounds against IRAK4 with ATP (Caliper, FAM-labeled peptide)
Type: biochemical
Details: for IC50: read-out: IC50 (nM) (10 μM ATP); for activity, times better than that of the positive control compound CA4948: IRAK4 kinase inhibition relative to CA4948
Method: Prepare Ix kinase base buffer and stop buffer for testing kinases: (1) base buffer: 50 mM HEPES (pH 7.5), 0.0015% Brij-35; (2) stop buffer: 100 mM HEPES (pH 7.5), 0.015% Brij-35, 0.2% Coating Reagent #3, 50 mM EDTA. Then prepare compounds for testing: Dilute the compound to 50× of the final desired highest inhibitor concentration in reaction by 100% DMSO. Transfer 100 μL of this compound dilution to a well in a 96-well plate (source plate).
Serially dilute the compounds by 3-fold for a total of 10 points. Transfer 10 μL of the compound from the source plate to a new 96-well plate (intermediate plate) and add 90 μL of Ix kinase buffer. Shake the mixture on the intermediate plate for 10 min. Transfer 5 μL of each well from the 96-well intermediate plate to a 384-well plate in duplicates. Add 10 μL of 2.5× enzyme solution to each well of the 384-well assay plate and incubate at room temperature for 10 min. Add 10 μL, of 2.5×FAM-labeled peptide and ATP solution and incubate at 28° C. for a period of time. Finally stop the reaction by adding 30 μL of stop buffer and collect data on Caliper to obtain the IC50.

Sequence of IRAK4 (Q9NWZ3 whole entry): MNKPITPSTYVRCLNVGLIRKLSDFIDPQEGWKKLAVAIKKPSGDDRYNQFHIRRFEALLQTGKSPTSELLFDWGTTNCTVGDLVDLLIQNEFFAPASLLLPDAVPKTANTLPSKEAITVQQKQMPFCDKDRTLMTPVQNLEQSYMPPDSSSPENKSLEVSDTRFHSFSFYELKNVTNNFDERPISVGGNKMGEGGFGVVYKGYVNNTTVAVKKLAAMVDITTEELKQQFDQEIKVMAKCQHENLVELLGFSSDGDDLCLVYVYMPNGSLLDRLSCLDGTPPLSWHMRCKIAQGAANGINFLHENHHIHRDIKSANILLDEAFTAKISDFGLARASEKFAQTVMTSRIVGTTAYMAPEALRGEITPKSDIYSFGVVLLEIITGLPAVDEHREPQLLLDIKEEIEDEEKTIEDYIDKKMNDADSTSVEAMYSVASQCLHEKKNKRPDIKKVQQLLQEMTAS

SMILES	IC50 (IRAK4 kinase, 10 μM ATP) [nM]	activity, times better than that of the positive control compound CA4948	IC50 [nM]
Cc1cc(-c2nc(NC(=O)c3cc4oc(N5CCOCC5)nc4nc3N3CC[C@@H](O)C3)co2)ccn1 [Compound A49, (R)-5-(3-Hydroxypyrrolidin-1-yl)-N-(2-(2-methylpyridin-4-yl)oxazol-4-yl)-2-morpholinooxazolo[4,5-b]pyridine-6-carboxamide]	> 6000	–	–
COc1cccc(NC(=O)c2cc3oc(N4CCOCC4)nc3nc2N2CCC(O)CC2)n1 [Compound A43, 5-(4-Hydroxypiperidin-1-yl)-N-(6-methoxypyridin-2-yl)-2-morpholinooxazolo[4,5-b]pyridine-6-carboxamide]	137	–	–
Cn1cc(-c2cccc(NC(=O)c3cc4oc(N5CCNCC5)nc4nc3N3CCC(C)(O)CC3)n2)cn1 [Compound A56, 5-(4-Hydroxy-4-methylpiperidin-1-yl)-N-(6-(1-methyl-1H-pyrazol-4-yl)pyridin-2-yl)-2-(piperazin-1-yl)oxazolo[4,5-b]pyridine-6-carboxamide]	7.8	–	–
Cn1cc(-c2cccc(NC(=O)c3cc4oc(N5CCOCC5)nc4nc3N3CCC4(CCO4)CC3)n2)cn1 [Compound A26, N-(6-(1-Methyl-1H-pyrazol-4-yl)pyridin-2-yl)-2-morpholino-5-(1-oxa-7-azaspiro[3.5]nonan-7-yl)oxazolo[4,5-b]pyridine-6-carboxamide]	–	more than 25 times	4.2
Cn1cc(-c2cccc(NC(=O)c3cc4oc(N5CCOCC5)nc4nc3N3CCN4CCC[C@@H]4C3)n2)cn1 [Compound A21, (R)-5-(Hexahydropyrrolo[1,2-a]pyrazin-2(1H)-yl)-N-(6-(1-methyl-1H-pyrazol-4-yl)pyridin-2-yl)-2-morpholinooxazolo[4,5-b]pyridine-6-carboxamide]	26	–	–
CN1CCN(c2nc3nc(N4CCOCC4)oc3cc2C(=O)Nc2cccc(-c3cnn(C)c3)n2)CC1CO (stereo not drawn) [Compound A37, 5-(3-(Hydroxymethyl)-4-methylpiperazin-1-yl)-N-(6-(1-methyl-1H-pyrazol-4-yl)pyridin-2-yl)-2-morpholinooxazolo[4,5-b]pyridine-6-carboxamide Hydrochloride]	462	–	–
Cn1cc(-c2cccc(NC(=O)c3cc4oc(N5CCOCC5)nc4nc3N3CCC(F)(F)CC3)n2)cn1 [Compound A11, 5-(4,4-Difluoropiperidin-1-yl)-N-(6-(1-methyl-1H-pyrazol-4-yl)pyridin-2-yl)-2-morpholinooxazolo[4,5-b]pyridine-6-carboxamide]	22	more than 5 times	–
Cn1cc(-c2cccc(NC(=O)c3cc4oc(N5CCOCC5)nc4nc3N3CC(O)(C4CC4)C3)n2)cn1 [Compound A10, 5-(3-Cyclopropyl-3-hydroxyazetidin-1-yl)-N-(6-(1-methyl-1H-pyrazol-4-yl)pyridin-2-yl)-2-morpholinooxazolo[4,5-b]pyridine-6-carboxamide]	122	–	–
Cn1cc(-c2cccc(NC(=O)c3cc4oc(N5CCOCC5)nc4nc3N3CC4(CCOC4)C3)n2)cn1 [Compound A18, N-(6-(1-Methyl-1H-pyrazol-4-yl)pyridin-2-yl)-2-morpholino-5-(6-oxa-2-azaspiro[3.4]octan-2-yl)oxazolo[4,5-b]pyridine-6-carboxamide]	221	–	–
Cn1cc(-c2cccc(NC(=O)c3cc4oc(N5CCOCC5)nc4nc3N3CCN4CCC[C@H]4C3)n2)cn1 [Compound A27, (S)-5-(Hexahydropyrrolo[1,2-a]pyrazin-2(1H)-yl)-N-(6-(1-methyl-1H-pyrazol-4-yl)pyridin-2-yl)-2-morpholinooxazolo[4,5-b]pyridine-6-carboxamide]	81	–	–
Cn1cc(-c2cccc(NC(=O)c3cc4oc(N5CCOCC5)nc4nc3N3CC[C@H](O)C3)n2)cn1 [Compound A6, (S)-5-(3-hydroxypyrrolidin-1-yl)-N-(6-(1-methyl-1H-pyrazol-4-yl)pyridin-2-yl)-2-morpholinooxazolo[4,5-b]pyridine-6-carboxamide]	194	–	–
Cn1cc(-c2cccc(NC(=O)c3cc4oc(N5CCOCC5)nc4nc3N3CCC(C)(O)CC3)n2)cn1 [Compound A25, 5-(4-Hydroxy-4-methylpiperidin-1-yl)-N-(6-(1-methyl-1H-pyrazol-4-yl)pyridin-2-yl)-2-morpholinooxazolo[4,5-b]pyridine-6-carboxamide]	8.6	more than 10 times	–
Cl.Cn1cc(-c2cccc(NC(=O)c3cc4oc(N5CCOCC5)nc4nc3N3CCN(C4CC4)CC3)n2)cn1 [Compound A35, 5-(4-Cyclopropylpiperazin-1-yl)-N-(6-(1-methyl-1H-pyrazol-4-yl)pyridin-2-yl)-2-morpholinooxazolo[4,5-b]pyridine-6-carboxamide Hydrochloride]	8.9	more than 10 times	–
CN1CCN(c2nc3nc(N4CCOCC4)oc3cc2C(=O)Nc2cccc(-c3cnn(C)c3)n2)CC1 [Compound A3, N-(6-(1-methyl-1H-pyrazol-4-yl)pyridin-2-yl)-5-(4-methylpiperazin-1-yl)-2-morpholinooxazolo[4,5-b]pyridine-6-carboxamide]	43	–	–
Cn1cc(-c2cccc(NC(=O)c3cc4c(nc3OC3CC(C)(O)C3)OC(C)(C)C4)n2)cn1 (stereo not drawn) [Compound B35, 6-(3-Hydroxy-3-methylcyclobutoxy)-2,2-dimethyl-N-(6-(1-methyl-1H-pyrazol-4-yl)pyridin-2-yl)-2,3-dihydrofuro[2,3-b]pyridine-5-carboxamide]	6.8	more than 10 times	–

Second part, led by results:

IC50 (IRAK4 kinase, 10 μM ATP) [nM]	activity, times better than that of the positive control compound CA4948	SMILES	IC50 [nM]
50	–	COc1nc2c(cc1C(=O)Nc1cccc(-c3cnn(C)c3)n1)CC(C)(C)O2 [Compound B11, 6-Methoxy-2,2-dimethyl-N-(6-(1-methyl-1H-pyrazol-4-yl)pyridin-2-yl)-2,3-dihydrofuro[2,3-b]pyridine-5-carboxamide]	–
31	–	Cn1cc(-c2cccc(NC(=O)c3cc4c(nc3N3CCN(CCO)CC3)OC(C)(C)C4)n2)cn1 [Compound B3, 6-(4-(2-Hydroxyethyl)piperazin-1-yl)-2,2-dimethyl-N-(6-(1-methyl-1H-pyrazol-4-yl)pyridin-2-yl)-2,3-dihydrofuro[2,3-b]pyridine-5-carboxamide]	–
5.6	–	Cn1cc(-c2cccc(NC(=O)c3cc4c(nc3OC3CCCC3)OC(C)(C)C4)n2)cn1 [Compound B15, 6-(Cyclopentyloxy)-2,2-dimethyl-N-(6-(1-methyl-1H-pyrazol-4-yl)pyridin-2-yl)-2,3-dihydrofuro[2,3-b]pyridine-5-carboxamide]	–
11	–	Cn1cc(-c2cccc(NC(=O)c3cc4c(nc3N3CCC(C)(O)CC3)OC(C)(C)C4)n2)cn1 [Compound B7, 6-(4-Hydroxy-4-methylpiperidin-1-yl)-2,2-dimethyl-N-(6-(1-methyl-1H-pyrazol-4-yl)pyridin-2-yl)-2,3-dihydrofuro[2,3-b]pyridine-5-carboxamide]	–
224	–	Cn1cc(-c2cccc(NC(=O)c3cc4c(nc3N3CCNC5(CC5)C3)OC(C)(C)C4)n2)cn1 [Compound B8, 2,2-Dimethyl-N-(6-(1-methyl-1H-pyrazol-4-yl)pyridin-2-yl)-6-(4,7-diazaspiro[2.5]octan-7-yl)-2,3-dihydrofuro[2,3-b]pyridine-5-carboxamide]	–
7.5	–	Cn1cc(-c2cccc(NC(=O)c3cc4c(nc3N3CCN(C5CC5)CC3)OC(C)(C)C4)n2)cn1 [Compound B4, 6-(4-Cyclopropylpiperazin-1-yl)-2,2-dimethyl-N-(6-(1-methyl-1H-pyrazol-4-yl)pyridin-2-yl)-2,3-dihydrofuro[2,3-b]pyridine-5-carboxamide]	–
354	–	Cn1cc(-c2cccc(NC(=O)c3cc4c(nc3OC3CCNC3)OC(C)(C)C4)n2)cn1 (stereo not drawn) [Compound B22, 2,2-Dimethyl-N-(6-(1-methyl-1H-pyrazol-4-yl)pyridin-2-yl)-6-(pyrrolidin-3-yloxy)-2,3-dihydrofuro[2,3-b]pyridine-5-carboxamide]	–
17	more than 5 times	Cl.Cn1cc(-c2cccc(NC(=O)c3cc4oc(N5CCOCC5)nc4nc3N3CCN(CCO)CC3)n2)cn1 [Compound A36, 5-(4-(2-Hydroxyethyl)piperazin-1-yl)-N-(6-(1-methyl-1H-pyrazol-4-yl)pyridin-2-yl)-2-morpholinooxazolo[4,5-b]pyridine-6-carboxamide Hydrochloride]	–
248	–	Cn1cc(-c2cccc(NC(=O)c3cc4c(nc3OC3CNC(=O)OC3)OC(C)(C)C4)n2)cn1 (stereo not drawn) [Compound B28, 2,2-Dimethyl-N-(6-(1-methyl-1H-pyrazol-4-yl)pyridin-2-yl)-6-((2-oxo-1,3-oxazinan-5-yl)oxy)-2,3-dihydrofuro[2,3-b]pyridine-5-carboxamide]	–
4.5	more than 25 times	COC1CCN(c2nc3c(cc2C(=O)Nc2cccc(-c4cnn(C)c4)n2)CC(C)(C)O3)CC1 [Compound B1, 6-(4-Methoxypiperidin-1-yl)-2,2-dimethyl-N-(6-(1-methyl-1H-pyrazol-4-yl)pyridin-2-yl)-2,3-dihydrofuro[2,3-b]pyridine-5-carboxamide]	–
11	–	Cn1cc(-c2cccc(NC(=O)c3cc4c(nc3OCC3CC3)OC(C)(C)C4)n2)cn1 [Compound B24, 6-(Cyclopropylmethoxy)-2,2-dimethyl-N-(6-(1-methyl-1H-pyrazol-4-yl)pyridin-2-yl)-2,3-dihydrofuro[2,3-b]pyridine-5-carboxamide]	–
